Test results published in publication PMC11167047 (Cell Death Discovery, 2024).

Experiments:
Experiment in all cases: kinome screen (33PanQinase)
Type in all cases: biochemical
CK1Δ = target: T1, CK1Δ (Homo sapiens, UniProt P48730)
T1 construct: purchased Reaction Biology Europe GmbH (formerly ProQinase)
Procedure: (§1) The Kinome Screening was performed by Reaction Biology Europe GmbH (http://reactionbiology.com; Freiburg i. Br., Germany).

DNAPK = target: T2, DNAPK (Homo sapiens, UniProt P78527)
T2 construct: purchased Reaction Biology Europe GmbH (formerly ProQinase)
Procedure: as §1

DAPK2 = target: T3, DAPK2 (Homo sapiens, UniProt Q9UIK4)
T3 construct: purchased Reaction Biology Europe GmbH (formerly ProQinase)
Procedure: as §1

MAP3K1 = target: T4, MAP3K1 (Homo sapiens, UniProt Q13233)
T4 construct: purchased Reaction Biology Europe GmbH (formerly ProQinase)
Procedure: as §1

MARK1 = target: T5, MARK1 (Homo sapiens, UniProt Q9P0L2)
T5 construct: purchased Reaction Biology Europe GmbH (formerly ProQinase)
Procedure: as §1

IKKα = target: T6, IKKα (Homo sapiens, UniProt O15111)
T6 construct: purchased Reaction Biology Europe GmbH (formerly ProQinase)
T6 sequence (O15111 1-745): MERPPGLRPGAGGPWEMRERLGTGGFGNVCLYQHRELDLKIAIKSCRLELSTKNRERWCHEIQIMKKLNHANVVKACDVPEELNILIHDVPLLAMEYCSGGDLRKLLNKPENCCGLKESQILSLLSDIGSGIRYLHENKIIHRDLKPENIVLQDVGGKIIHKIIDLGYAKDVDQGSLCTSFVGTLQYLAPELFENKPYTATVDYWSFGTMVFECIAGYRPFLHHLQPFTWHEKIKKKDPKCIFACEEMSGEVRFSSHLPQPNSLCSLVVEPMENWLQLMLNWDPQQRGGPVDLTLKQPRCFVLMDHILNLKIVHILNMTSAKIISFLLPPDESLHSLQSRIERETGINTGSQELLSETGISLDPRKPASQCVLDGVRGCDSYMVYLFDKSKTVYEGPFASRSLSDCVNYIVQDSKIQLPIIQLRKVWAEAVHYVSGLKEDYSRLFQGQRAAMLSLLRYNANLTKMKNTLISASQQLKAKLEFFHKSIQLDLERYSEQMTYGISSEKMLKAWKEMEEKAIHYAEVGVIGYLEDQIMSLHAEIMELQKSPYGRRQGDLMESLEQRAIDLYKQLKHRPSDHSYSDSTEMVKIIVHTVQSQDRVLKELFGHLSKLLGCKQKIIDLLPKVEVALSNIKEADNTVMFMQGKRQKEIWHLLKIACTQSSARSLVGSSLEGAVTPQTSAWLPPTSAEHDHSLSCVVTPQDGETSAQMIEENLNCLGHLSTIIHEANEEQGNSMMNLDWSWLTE
Procedure: as §1

SGK2 = target: T7, SGK2 (Homo sapiens, UniProt Q9HBY8)
T7 construct: purchased Reaction Biology Europe GmbH (formerly ProQinase)
T7 sequence (Q9HBY8 1-367): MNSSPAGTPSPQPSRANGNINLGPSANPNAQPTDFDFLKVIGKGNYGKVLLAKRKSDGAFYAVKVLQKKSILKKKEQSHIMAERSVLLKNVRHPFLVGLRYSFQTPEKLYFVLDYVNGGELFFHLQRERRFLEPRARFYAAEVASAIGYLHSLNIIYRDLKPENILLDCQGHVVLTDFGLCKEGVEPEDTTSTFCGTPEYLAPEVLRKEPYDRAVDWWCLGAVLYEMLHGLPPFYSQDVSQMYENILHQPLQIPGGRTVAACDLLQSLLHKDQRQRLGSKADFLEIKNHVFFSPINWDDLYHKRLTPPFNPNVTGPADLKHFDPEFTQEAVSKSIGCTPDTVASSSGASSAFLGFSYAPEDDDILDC
Procedure: as §1

HIPK2 = target: T8, HIPK2 (Homo sapiens, UniProt Q9H2X6)
T8 construct: purchased Reaction Biology Europe GmbH (formerly ProQinase)
Procedure: as §1

CDK2/CycD1 = target: T9, CDK2/CycD1 (Homo sapiens, UniProt P24941)
T9 construct: purchased Reaction Biology Europe GmbH (formerly ProQinase)
Procedure: as §1

PYK2 = target: T10, PYK2 (Homo sapiens, UniProt Q14289)
T10 construct: purchased Reaction Biology Europe GmbH (formerly ProQinase)
Procedure: as §1

MET = target: T11, MET (Homo sapiens, UniProt P08581)
T11 construct: purchased Reaction Biology Europe GmbH (formerly ProQinase)
Procedure: as §1

MARK2 = target: T12, MARK2 (Homo sapiens, UniProt Q7KZI7)
T12 construct: purchased Reaction Biology Europe GmbH (formerly ProQinase)
Procedure: as §1

SGK1 = target: T13, SGK1 (Homo sapiens, UniProt O00141)
T13 construct: purchased Reaction Biology Europe GmbH (formerly ProQinase)
T13 sequence (O00141 1-431): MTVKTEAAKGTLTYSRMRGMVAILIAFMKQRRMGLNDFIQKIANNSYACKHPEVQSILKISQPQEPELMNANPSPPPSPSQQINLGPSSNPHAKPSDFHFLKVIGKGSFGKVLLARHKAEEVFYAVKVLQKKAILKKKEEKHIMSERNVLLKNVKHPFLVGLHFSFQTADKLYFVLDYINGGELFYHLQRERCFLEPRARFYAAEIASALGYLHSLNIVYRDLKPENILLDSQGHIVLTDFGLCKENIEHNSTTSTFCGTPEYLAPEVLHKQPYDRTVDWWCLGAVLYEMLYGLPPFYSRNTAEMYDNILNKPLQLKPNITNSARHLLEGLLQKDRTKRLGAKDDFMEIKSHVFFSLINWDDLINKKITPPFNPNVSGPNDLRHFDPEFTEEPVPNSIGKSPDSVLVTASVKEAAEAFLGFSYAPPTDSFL
Procedure: as §1

T5 sequence (Q9P0L2 whole entry): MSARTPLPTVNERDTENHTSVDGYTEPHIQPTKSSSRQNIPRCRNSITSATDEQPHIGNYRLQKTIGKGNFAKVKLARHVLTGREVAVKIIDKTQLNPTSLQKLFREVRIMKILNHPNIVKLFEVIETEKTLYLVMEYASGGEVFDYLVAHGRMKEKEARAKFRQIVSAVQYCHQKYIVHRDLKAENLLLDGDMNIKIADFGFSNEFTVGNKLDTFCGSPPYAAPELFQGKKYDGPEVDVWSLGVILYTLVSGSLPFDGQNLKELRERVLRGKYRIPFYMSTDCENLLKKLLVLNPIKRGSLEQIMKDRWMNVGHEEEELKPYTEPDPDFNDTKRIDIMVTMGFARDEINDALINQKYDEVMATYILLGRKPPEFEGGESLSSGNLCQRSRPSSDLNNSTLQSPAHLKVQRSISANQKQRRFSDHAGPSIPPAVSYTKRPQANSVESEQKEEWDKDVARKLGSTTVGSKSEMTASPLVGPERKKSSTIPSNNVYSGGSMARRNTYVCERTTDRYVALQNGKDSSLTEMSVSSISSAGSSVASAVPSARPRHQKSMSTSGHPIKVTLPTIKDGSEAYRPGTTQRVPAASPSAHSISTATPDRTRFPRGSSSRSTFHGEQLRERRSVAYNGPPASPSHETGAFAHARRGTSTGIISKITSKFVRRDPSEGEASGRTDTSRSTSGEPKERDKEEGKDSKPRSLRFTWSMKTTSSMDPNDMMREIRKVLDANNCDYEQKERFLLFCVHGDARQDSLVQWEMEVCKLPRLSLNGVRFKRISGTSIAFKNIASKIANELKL
T1 sequence (P48730 whole entry, stated change not applied): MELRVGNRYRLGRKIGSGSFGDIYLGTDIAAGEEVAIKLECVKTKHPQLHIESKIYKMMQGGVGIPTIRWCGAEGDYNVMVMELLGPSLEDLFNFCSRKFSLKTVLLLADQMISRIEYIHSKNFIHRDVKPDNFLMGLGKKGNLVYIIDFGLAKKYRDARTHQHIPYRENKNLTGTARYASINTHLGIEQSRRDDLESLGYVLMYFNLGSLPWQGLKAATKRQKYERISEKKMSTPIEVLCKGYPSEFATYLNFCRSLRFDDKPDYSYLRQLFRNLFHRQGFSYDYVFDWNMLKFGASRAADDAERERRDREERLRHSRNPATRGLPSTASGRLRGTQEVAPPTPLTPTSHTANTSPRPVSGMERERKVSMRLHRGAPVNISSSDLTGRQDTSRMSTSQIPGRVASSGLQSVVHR
T8 sequence (Q9H2X6 whole entry): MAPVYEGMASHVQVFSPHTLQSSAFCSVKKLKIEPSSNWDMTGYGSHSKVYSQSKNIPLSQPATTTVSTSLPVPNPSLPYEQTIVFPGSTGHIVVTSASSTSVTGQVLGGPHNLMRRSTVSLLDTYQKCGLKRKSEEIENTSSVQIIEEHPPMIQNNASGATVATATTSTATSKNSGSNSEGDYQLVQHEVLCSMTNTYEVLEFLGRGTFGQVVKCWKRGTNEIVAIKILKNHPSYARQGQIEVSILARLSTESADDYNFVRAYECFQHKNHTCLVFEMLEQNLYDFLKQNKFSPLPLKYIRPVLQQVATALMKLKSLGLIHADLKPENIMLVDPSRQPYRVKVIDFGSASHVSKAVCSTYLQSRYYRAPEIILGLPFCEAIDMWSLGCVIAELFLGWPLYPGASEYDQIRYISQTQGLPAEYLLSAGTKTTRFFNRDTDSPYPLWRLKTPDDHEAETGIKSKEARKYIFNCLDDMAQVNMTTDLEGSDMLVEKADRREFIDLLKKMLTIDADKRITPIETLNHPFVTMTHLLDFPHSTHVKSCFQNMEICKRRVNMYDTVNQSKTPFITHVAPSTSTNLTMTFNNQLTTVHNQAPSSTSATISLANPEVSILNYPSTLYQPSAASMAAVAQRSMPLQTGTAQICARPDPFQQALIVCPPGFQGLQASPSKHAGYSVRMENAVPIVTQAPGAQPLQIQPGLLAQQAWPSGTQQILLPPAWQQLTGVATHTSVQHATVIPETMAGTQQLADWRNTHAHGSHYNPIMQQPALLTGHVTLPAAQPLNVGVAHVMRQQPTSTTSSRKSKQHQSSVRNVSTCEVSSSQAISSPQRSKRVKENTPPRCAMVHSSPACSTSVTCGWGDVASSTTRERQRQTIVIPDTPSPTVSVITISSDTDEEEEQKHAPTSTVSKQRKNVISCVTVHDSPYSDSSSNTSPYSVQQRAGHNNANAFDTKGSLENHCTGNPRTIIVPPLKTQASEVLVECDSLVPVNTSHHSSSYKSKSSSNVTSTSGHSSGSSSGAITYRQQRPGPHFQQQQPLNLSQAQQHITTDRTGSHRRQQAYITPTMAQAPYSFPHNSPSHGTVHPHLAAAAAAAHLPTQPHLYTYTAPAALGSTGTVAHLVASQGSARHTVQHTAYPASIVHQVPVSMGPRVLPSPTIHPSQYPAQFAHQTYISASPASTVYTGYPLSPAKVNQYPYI
T10 sequence (Q14289 whole entry): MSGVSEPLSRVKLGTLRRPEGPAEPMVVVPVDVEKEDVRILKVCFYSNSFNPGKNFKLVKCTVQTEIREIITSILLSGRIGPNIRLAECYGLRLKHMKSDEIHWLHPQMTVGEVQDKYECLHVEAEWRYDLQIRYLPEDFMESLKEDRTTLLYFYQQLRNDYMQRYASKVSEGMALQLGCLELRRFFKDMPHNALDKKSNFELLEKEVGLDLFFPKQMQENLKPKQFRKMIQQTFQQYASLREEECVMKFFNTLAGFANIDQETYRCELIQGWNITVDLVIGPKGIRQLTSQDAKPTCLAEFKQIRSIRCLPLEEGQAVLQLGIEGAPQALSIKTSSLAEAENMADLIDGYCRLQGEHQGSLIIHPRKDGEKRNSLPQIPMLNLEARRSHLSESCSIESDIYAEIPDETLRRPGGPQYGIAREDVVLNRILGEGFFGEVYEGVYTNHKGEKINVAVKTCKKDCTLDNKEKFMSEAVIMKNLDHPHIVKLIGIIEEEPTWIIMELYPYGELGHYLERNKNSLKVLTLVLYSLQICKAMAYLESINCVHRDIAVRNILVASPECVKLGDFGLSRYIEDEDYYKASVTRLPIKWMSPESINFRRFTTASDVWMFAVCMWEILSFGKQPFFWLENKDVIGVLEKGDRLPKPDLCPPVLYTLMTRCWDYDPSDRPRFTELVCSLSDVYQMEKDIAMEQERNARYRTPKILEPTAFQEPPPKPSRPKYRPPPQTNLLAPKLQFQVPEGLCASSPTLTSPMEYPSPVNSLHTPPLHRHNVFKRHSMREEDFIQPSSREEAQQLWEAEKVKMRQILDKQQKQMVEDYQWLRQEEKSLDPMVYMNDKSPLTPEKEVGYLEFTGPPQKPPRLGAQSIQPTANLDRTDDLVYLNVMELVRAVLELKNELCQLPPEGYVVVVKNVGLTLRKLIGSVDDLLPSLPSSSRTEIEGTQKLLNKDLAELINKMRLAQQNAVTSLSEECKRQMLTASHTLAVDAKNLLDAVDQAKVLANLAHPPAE
T4 sequence (Q13233 whole entry): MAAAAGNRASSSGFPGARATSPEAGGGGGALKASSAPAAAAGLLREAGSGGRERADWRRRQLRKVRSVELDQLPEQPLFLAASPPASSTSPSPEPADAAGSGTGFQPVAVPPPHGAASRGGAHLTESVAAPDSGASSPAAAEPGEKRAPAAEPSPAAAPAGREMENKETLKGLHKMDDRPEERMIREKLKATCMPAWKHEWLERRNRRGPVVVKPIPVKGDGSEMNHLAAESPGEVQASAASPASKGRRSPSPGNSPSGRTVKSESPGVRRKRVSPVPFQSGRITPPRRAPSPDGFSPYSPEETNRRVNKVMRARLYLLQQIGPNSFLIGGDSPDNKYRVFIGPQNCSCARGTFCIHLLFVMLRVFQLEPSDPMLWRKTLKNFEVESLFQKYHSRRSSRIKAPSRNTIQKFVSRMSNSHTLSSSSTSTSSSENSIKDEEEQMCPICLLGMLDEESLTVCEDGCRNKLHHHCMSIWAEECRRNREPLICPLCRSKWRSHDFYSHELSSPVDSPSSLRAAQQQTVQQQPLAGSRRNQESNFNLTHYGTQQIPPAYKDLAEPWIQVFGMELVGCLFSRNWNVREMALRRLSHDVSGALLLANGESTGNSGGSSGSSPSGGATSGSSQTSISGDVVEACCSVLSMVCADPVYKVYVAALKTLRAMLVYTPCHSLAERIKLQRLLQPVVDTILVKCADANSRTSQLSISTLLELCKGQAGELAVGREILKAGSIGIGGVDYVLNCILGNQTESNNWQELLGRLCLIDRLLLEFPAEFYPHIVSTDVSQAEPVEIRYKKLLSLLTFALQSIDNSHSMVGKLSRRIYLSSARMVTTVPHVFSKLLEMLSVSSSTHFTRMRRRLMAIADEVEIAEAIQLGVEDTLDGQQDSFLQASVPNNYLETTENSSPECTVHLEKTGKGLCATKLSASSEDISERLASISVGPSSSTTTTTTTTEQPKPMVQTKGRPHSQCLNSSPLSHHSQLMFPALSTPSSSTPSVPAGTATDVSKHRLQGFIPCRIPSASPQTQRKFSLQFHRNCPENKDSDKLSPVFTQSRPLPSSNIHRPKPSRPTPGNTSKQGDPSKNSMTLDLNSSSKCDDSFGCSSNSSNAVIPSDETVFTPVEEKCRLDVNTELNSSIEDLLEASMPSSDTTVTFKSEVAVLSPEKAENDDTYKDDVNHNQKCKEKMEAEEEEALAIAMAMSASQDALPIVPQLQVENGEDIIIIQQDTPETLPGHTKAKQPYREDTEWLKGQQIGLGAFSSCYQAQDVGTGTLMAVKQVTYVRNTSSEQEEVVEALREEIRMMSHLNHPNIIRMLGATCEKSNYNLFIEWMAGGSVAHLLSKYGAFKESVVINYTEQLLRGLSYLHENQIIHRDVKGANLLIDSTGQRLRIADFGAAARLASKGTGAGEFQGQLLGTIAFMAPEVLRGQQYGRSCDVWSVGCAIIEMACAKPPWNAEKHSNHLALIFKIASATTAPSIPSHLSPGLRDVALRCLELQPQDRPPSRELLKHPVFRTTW

For COc1ccnc2[nH]cc(-c3cc(N)nc(N)c3)c12 [meriolin 16], which residual kinase activity (CK1Δ; 0.03 µM) is on record?
Its residual kinase activity is 77 % of control.

What about the residual kinase activity (CK1Δ; 0.3 µM) of the same compound?
The residual kinase activity was 17 % of control.

And the residual kinase activity (DNAPK; 0.03 µM)?
The residual kinase activity was 100 % of control.

What about the residual kinase activity (DNAPK; 0.3 µM) of the same compound?
The residual kinase activity was 97 % of control.

And the residual kinase activity (DAPK2; 0.03 µM)?
The residual kinase activity was 106 % of control.

What about the residual kinase activity (DAPK2; 0.3 µM) of the same compound?
The residual kinase activity was 78 % of control.

And the residual kinase activity (MAP3K1; 0.03 µM)?
The residual kinase activity was 105 % of control.

And the residual kinase activity (MAP3K1; 0.3 µM)?
The residual kinase activity was 106 % of control.

And the residual kinase activity (MARK1; 0.03 µM)?
Its residual kinase activity is 121 % of control.

What about the residual kinase activity (MARK1; 0.3 µM) of the same compound?
The residual kinase activity was 101 % of control.

And the residual kinase activity (IKKα; 0.03 µM)?
Its residual kinase activity is 27 % of control.

And the residual kinase activity (IKKα; 0.3 µM)?
Its residual kinase activity is 16 % of control.

What about the residual kinase activity (SGK2; 0.03 µM) of the same compound?
The residual kinase activity was 97 % of control.

And the residual kinase activity (SGK2; 0.3 µM)?
The residual kinase activity was 74 % of control.

What about the residual kinase activity (HIPK2; 0.03 µM) of the same compound?
Its residual kinase activity is 36 % of control.

And the residual kinase activity (HIPK2; 0.3 µM)?
Its residual kinase activity is 4 % of control.

And the residual kinase activity (CDK2/CycD1; 0.03 µM)?
The residual kinase activity was 54 % of control.

What about the residual kinase activity (CDK2/CycD1; 0.3 µM) of the same compound?
The residual kinase activity was 23 % of control.

What about the residual kinase activity (PYK2; 0.03 µM) of the same compound?
The residual kinase activity was 117 % of control.

And the residual kinase activity (PYK2; 0.3 µM)?
Its residual kinase activity is 102 % of control.

What about the residual kinase activity (MET; 0.03 µM) of the same compound?
Its residual kinase activity is 110 % of control.

What about the residual kinase activity (MET; 0.3 µM) of the same compound?
The residual kinase activity was 106 % of control.

What about the residual kinase activity (MARK2; 0.03 µM) of the same compound?
The residual kinase activity was 91 % of control.

And the residual kinase activity (MARK2; 0.3 µM)?
Its residual kinase activity is 88 % of control.

What about the residual kinase activity (SGK1; 0.03 µM) of the same compound?
Its residual kinase activity is 92 % of control.

What about the residual kinase activity (SGK1; 0.3 µM) of the same compound?
Its residual kinase activity is 76 % of control.

How did the residual kinase activity (CK1Δ; 0.3 µM) turn out when c1ccc(CNc2cc(-c3c[nH]c4ncccc34)ccn2)cc1 [meriolin 36] was run?
The residual kinase activity was 43 % of control.

What about the residual kinase activity (CK1Δ; 3 µM) of the same compound?
Its residual kinase activity is 9 % of control.

And the residual kinase activity (DNAPK; 0.3 µM)?
Its residual kinase activity is 71 % of control.

What about the residual kinase activity (DNAPK; 3 µM) of the same compound?
Its residual kinase activity is 25 % of control.

And the residual kinase activity (DAPK2; 0.3 µM)?
The residual kinase activity was 118 % of control.

And the residual kinase activity (DAPK2; 3 µM)?
The residual kinase activity was 67 % of control.

And the residual kinase activity (MAP3K1; 0.3 µM)?
The residual kinase activity was 94 % of control.

What about the residual kinase activity (MAP3K1; 3 µM) of the same compound?
The residual kinase activity was 93 % of control.

What about the residual kinase activity (MARK1; 0.3 µM) of the same compound?
The residual kinase activity was 90 % of control.

And the residual kinase activity (MARK1; 3 µM)?
The residual kinase activity was 43 % of control.

And the residual kinase activity (IKKα; 0.3 µM)?
The residual kinase activity was 37 % of control.

And the residual kinase activity (IKKα; 3 µM)?
Its residual kinase activity is 13 % of control.

And the residual kinase activity (SGK2; 0.3 µM)?
The residual kinase activity was 88 % of control.

And the residual kinase activity (SGK2; 3 µM)?
The residual kinase activity was 32 % of control.

And the residual kinase activity (HIPK2; 0.3 µM)?
The residual kinase activity was 22 % of control.

And the residual kinase activity (HIPK2; 3 µM)?
Its residual kinase activity is 3 % of control.

What about the residual kinase activity (CDK2/CycD1; 0.3 µM) of the same compound?
The residual kinase activity was 6 % of control.

And the residual kinase activity (CDK2/CycD1; 3 µM)?
Its residual kinase activity is 5 % of control.

And the residual kinase activity (PYK2; 0.3 µM)?
Its residual kinase activity is 73 % of control.

And the residual kinase activity (PYK2; 3 µM)?
Its residual kinase activity is 24 % of control.

And the residual kinase activity (MET; 0.3 µM)?
The residual kinase activity was 99 % of control.

What about the residual kinase activity (MET; 3 µM) of the same compound?
The residual kinase activity was 48 % of control.

What about the residual kinase activity (MARK2; 0.3 µM) of the same compound?
The residual kinase activity was 98 % of control.

What about the residual kinase activity (MARK2; 3 µM) of the same compound?
Its residual kinase activity is 63 % of control.

And the residual kinase activity (SGK1; 0.3 µM)?
Its residual kinase activity is 30 % of control.

And the residual kinase activity (SGK1; 3 µM)?
Its residual kinase activity is 10 % of control.
